Results from patent publication US20250144067A1, “PERSONALIZED STARVATION THERAPY FOR CANCER” (Faeth Therapeutics, Inc., priority 2021, published 2025).
Structures can show the parent of a compound that is named as a salt. Where two headings read alike, the source gives them in different places.

Tests used:
[1] = tested on: NCI-H292 lung cancer cells; experiment: FDA drug screening, complete media vs cholesterol-free media with simvastatin (TABLE 2); format: cell-based, human
[2] = tested on: NCI-H292 lung cancer cells; experiment: FDA drug screening, complete media vs cholesterol-free media without statin (TABLE 1); format: cell-based, human
[3] = NCI-H292 cells, drug in cholesterol-free media with simvastatin 0.04 μM
[4] = NCI-H292 cells, drug in complete media
[5] = NCI-H292 cells in cholesterol-free media without statin
[6] = NCI-H292 cells in complete media
[7] = NCI-H292 cells, cholesterol-free media with simvastatin 0.04 μM, FDA drug library screen (TABLE 2)
[8] = NCI-H292 cells, complete media, FDA drug library screen (TABLE 2)
[9] = complete media minus cholesterol-free media + simvastatin (0.04 μM), >0 enhanced anti-cancer activity, about 0 neutral, <0 antagonist
[10] = Complete minus Cholesterol-free, greater than 0 enhanced anti-cancer activity, about 0 neutral, below 0 antagonist
[11] = NCI-H292 cells, FDA drug library screen, cholesterol-free media without statin
[12] = NCI-H292 cells, FDA drug library screen, complete media
[13] = NCI-H292 cells, FDA library drug in cholesterol-free media with simvastatin 0.04 μM
[14] = complete media vs cholesterol-free media + simvastatin (0.04 μM), >0 enhanced anti-cancer activity, about 0 neutral, <0 antagonist
[15] = Complete minus Cholesterol-free, greater than 0 enhanced anti-cancer activity, about 0 neutral, below 0 antagonists
[16] = NCI-H292 cells, cholesterol-free media without statin, FDA drug library screen
[17] = NCI-H292 cells, complete media, FDA drug library screen
[18] = complete vs cholesterol-free media, >0 enhanced anti-cancer activity, about 0 neutral, <0 antagonist
[19] = NCI-H292 cells, FDA drug library screen, cholesterol-free media with simvastatin 0.04 μM
[20] = complete media minus cholesterol-free media + simvastatin, >0 enhanced anti-cancer activity, about 0 neutral, <0 antagonist
[21] = Complete minus Cholesterol-free, >0 enhanced anti-cancer activity, about 0 neutral, <0 antagonist
[22] = NCI-H292 cells, cholesterol-free media without statin

Cn1c(=O)c2c(ncn2CC(O)CO)n(C)c1=O (stereo not drawn) [Diphylline]
Cholesterol-free media + simvastatin (0.04 μM) [1, 3]: 1.247 | Complete Media [1, 4]: 1.05 | Difference ([1]; complete media vs cholesterol-free media + simvastatin (0.04 μM), […]): −0.20 | Difference ([2]; Complete minus Cholesterol-free, […]): −0.69 | Cholesterol-free [2, 5]: 1.559 | Complete [2, 6]: 0.8732

Niraparib (tosylate)
Cholesterol-free media + simvastatin (0.04 μM) [1]: 1.448 | Complete Media [1]: 1.091 | Difference [1]: −0.36 | Cholesterol-free [2]: 1.671 | Difference [2]: −0.63

COc1cc2nccc(Oc3ccc(NC(=O)C4(C(=O)Nc5ccc(F)cc5)CC4)cc3)c2cc1OC [Cabozantinib]
Cholesterol-free media + simvastatin (0.04 μM) [1, 7]: 1.169 | Complete Media [1, 8]: 1.161 | Difference [1, 9]: −0.01 | Difference [2, 10]: −0.08 | Cholesterol-free [2, 11]: 1.023 | Complete [2, 12]: 0.943

(S)-Flurbiprofen
Cholesterol-free media + simvastatin (0.04 μM) [1, 13]: 1.832 | Difference [1, 14]: −0.79 | Difference [2, 15]: −0.56 | Cholesterol-free [2, 5]: 1.504 | Complete [2, 6]: 0.9454

O=[N+]([O-])c1cncn1CCN1CCOCC1 [Nimorazole]
Cholesterol-free media + simvastatin (0.04 μM) [1, 3]: 1.022 | Complete Media [1, 4]: 0.8004 | Difference [1, 14]: −0.22 | Cholesterol-free [2, 16]: 0.576 | Complete [2, 17]: 0.9886 | Difference [2, 18]: 0.41

c1ccc(Cc2nc3ccccc3[nH]2)cc1 [Bendazol]
Cholesterol-free media + simvastatin (0.04 μM) [1, 19]: 1.208 | Complete Media [1, 12]: 1.472 | Difference [1, 20]: 0.26 | Cholesterol-free [2, 16]: 1.234 | Complete [2, 17]: 1.354 | Difference [2, 18]: 0.12

COc1ccccc1Oc1c(NS(=O)(=O)c2ccc(C(C)(C)C)cc2)nc(-c2ncccn2)nc1OCCO [Bosentan]
Cholesterol-free media + simvastatin (0.04 μM) [1, 7]: 1.122 | Complete Media [1, 8]: 1.122 | Difference [1, 9]: 0.00 | Difference [2, 21]: −0.05 | Cholesterol-free [2, 16]: 1.038 | Complete [2, 17]: 0.9904

CC(=O)[C@]1(O)Cc2c(O)c3c(c(O)c2[C@@H](O[C@H]2C[C@H](N)[C@H](O)[C@H](C)O2)C1)C(=O)c1ccccc1C3=O [Idarubicin (hydrochloride)]
Cholesterol-free media + simvastatin (0.04 μM) [1, 7]: 0.008408 | Complete Media [1, 8]: 0.002721 | Difference [1, 9]: −0.01 | Difference [2, 21]: −0.01 | Cholesterol-free [2, 16]: −0.02296 | Complete [2, 17]: −0.02941

C#C[C@]1(OC(C)=O)CC[C@H]2[C@@H]3CCC4=CC(=O)CC[C@@H]4[C@H]3CC[C@@]21C [Norethindrone acetate]
Cholesterol-free media + simvastatin (0.04 μM) [1, 13]: 1.695 | Complete Media ([1]; NCI-H292 cells, FDA library drug in complete media): 0.9691 | Difference [1, 14]: −0.73 | Difference [2, 10]: −0.12 | Cholesterol-free [2, 11]: 1.033 | Complete [2, 12]: 0.9116

CCCNCC(O)COc1ccccc1C(=O)CCc1ccccc1 (stereo not drawn) [Propafenone (hydrochloride)]
Cholesterol-free media + simvastatin (0.04 μM) [1, 7]: 1.11 | Complete Media [1, 8]: 1.1 | Difference [1, 9]: −0.01 | Difference [2, 21]: 0.02 | Cholesterol-free [2, 16]: 1.064 | Complete [2, 17]: 1.086

Clc1cccc(Cl)c1N=C1NCCN1 [Clonidine (hydrochloride)]
Cholesterol-free media + simvastatin (0.04 μM) [1, 19]: 1.083 | Complete Media [1, 12]: 0.9532 | Difference [1, 14]: −0.13 | Difference [2, 10]: −0.12 | Cholesterol-free [2, 11]: 0.9351 | Complete [2, 12]: 0.8162

CCCNS(=O)(=O)Nc1ncnc(OCCOc2ncc(Br)cn2)c1-c1ccc(Br)cc1 [Macitentan]
Cholesterol-free media + simvastatin (0.04 μM) [1, 19]: 1.697 | Complete Media [1, 12]: 1.56 | Difference [1, 14]: −0.14 | Difference [2, 15]: −0.48 | Cholesterol-free [2, 5]: 1.592 | Complete [2, 6]: 1.113

CS(=O)(=O)Nc1ccc([N+](=O)[O-])cc1Oc1ccccc1 [Nimesulide]
Cholesterol-free media + simvastatin (0.04 μM) [1, 19]: 0.9827 | Difference [1, 20]: 0.17 | Difference [2, 21]: −0.26 | Cholesterol-free [2, 22]: 1.157 | Complete ([2]; NCI-H292 cells, complete media): 0.8983

Gentamicin (sulfate)
Cholesterol-free media + simvastatin (0.04 μM) ([1]; NCI-H292 cells, cholesterol-free media with simvastatin 0.04 μM, cell growth value in FDA drug screen): 0.8679 | Complete Media ([1]; NCI-H292 cells, complete media, cell growth value in FDA drug screen): 0.9575 | Difference [1, 20]: 0.09 | Difference [2, 21]: 0.07 | Cholesterol-free [2, 16]: 0.9104 | Complete [2, 17]: 0.9799

CC(C)n1c(/C=C/C(O)CC(O)CC(=O)O)c(-c2ccc(F)cc2)c2ccccc21 (stereo not drawn) [Fluvastatin (sodium)]
Cholesterol-free media + simvastatin (0.04 μM) [1, 19]: 0.3266 | Complete Media [1, 12]: 0.199 | Difference [1, 14]: −0.13 | Difference [2, 21]: −0.22 | Cholesterol-free [2, 22]: 0.3896 | Complete ([2]; NCI-H292 cells, complete media): 0.168
